# Assay: Human HepG2 cell viability assay in 384 well format
# Assay type: toxicity, cell-based
# Set-up: dose 125 nL, time 70.5 hour; cytotoxicity at 70.5 h: concentration not given beside the values
# Settings: HepG2 cells, read-out: Inhibition
row,Compound,cytotoxicity at 70.5 h [%]
1,CC(=O)N(C)CC(=O)NCC1(c2c(F)cccc2F)CCCC1,0.534
2,CC(C)c1cc(C(=O)N2CCN(CC3CC3)[C@@H]3CS(=O)(=O)C[C@@H]32)on1,-0.581
3,O=C(CCn1cc(Cl)cn1)N1CCN(CC2CC2)[C@@H]2CS(=O)(=O)C[C@@H]21,-10.2
4,O=C(Cc1nc(-c2ccncc2)n[nH]1)NCCCN1CCOCC1,-10.7
5,CC(C)NC(=O)CC1CC2(CCN(S(C)(=O)=O)CC2)c2ccccc21 (configuration not stated),3.25
6,Cc1nc(C2CCCN(C(=O)c3ccc(N4CCCC4)nn3)C2)no1 (configuration not stated),0.493
7,O=C(c1ccc2cccc(F)c2n1)N1CCN(CCn2cccc2)CC1,9.26
8,N#Cc1ccnc(N2CCC(c3nccn3Cc3cscn3)CC2)c1,31.3
9,O=c1[nH]c(C2CCOC2)nc2ccc(Br)cc12 (configuration not stated),-2.39
10,Cc1occc1C(=O)N1CCC2(CCN(Cc3nccs3)CC2)C1,-5.43
11,Cc1cnc(CN2CCN(C(C)c3nc(C(C)C)no3)CC2)cn1 (configuration not stated),-6.56
12,CCN1CCc2[nH]cnc2C12CCN(C(=O)CCc1cccs1)CC2,6.97
13,CCn1cc(-c2cc(C(F)F)nc3sc(C(N)=O)c(N)c23)c(C)n1,-3.39
14,CCCNC(=O)N1CCN(Cc2cc(C)no2)CC1,-8.29
15,Fc1cnc(N2C[C@@H]3COC[C@]3(COc3ccccn3)C2)nc1,19.5
16,CC[C@@]1(O)CCN(C(=O)c2ccsc2)C[C@H]1O,-7.08
17,O=C(O)c1ccccc1-n1cnc(CN2CCc3ccccc3C2)c1,27.7
18,Cc1nc(C2CCCN2Cc2cc(=O)n(C)c(=O)n2C)no1 (configuration not stated),-1.72
19,NS(=O)(=O)c1cc(C(=O)N2CCCC(n3ccnc3)C2)cs1 (configuration not stated),-3.09

row,Compound,cytotoxicity at 70.5 h [%]
1,Clc1ccc(-c2nnc([C@H]3CCN(C4CCCCC4)C3)o2)cc1,-3.54
2,Cc1nc2c(c(=O)n1C)CCN(C(=O)Cn1cccc1)CC2,-4.24
3,CCC(C)(CCO)NC(=O)c1ccon1 (configuration not stated),24.8
4,CCC(C(=O)NCc1ccncc1)N(c1cccc(Cl)c1)S(C)(=O)=O (configuration not stated),-2.79
5,CC(=O)N(C)CC(=O)NCC1CCN(c2cc(Cl)ccc2C)C1 (configuration not stated),2.11
6,O=C(CN1CCCc2c(F)cc(Br)cc21)N1CCN(C(=O)C2CC2)CC1,17.8
7,Cc1ccc(-c2nc(C3CCN(C(=O)c4ccnn4C)CC3)no2)cn1,-7.4
8,O=C(NC(C(=O)Nc1cc[nH]n1)c1ccccc1)C1CCC1 (configuration not stated),-0.966
9,CN(CCOc1ccc(Br)cc1)Cc1cscn1,1.92
10,NC(=O)CCCNC(=O)CCc1cc(Br)cs1,-5.18
11,c1cc(CN2CCCC2c2noc(C3CC3)n2)on1 (configuration not stated),-15.8
12,COc1ccc(CC(=O)N(C)Cc2nnc3ccccn23)cc1,-17.4
13,CNc1ncccc1CN1CCC1c1cc(N)nc(C)n1 (configuration not stated),12.5
14,CC(C)NC(=O)N1Cc2nccn2CC(COc2cccnc2)C1 (configuration not stated),9.72
15,Cc1cc(C2CCCN(CC(=O)N3CCCc4ccccc43)C2)n[nH]1 (configuration not stated),-9.66
16,COc1cccc(N2CC3(CCN(C(=O)NC(C)C)C3)CC2=O)c1 (configuration not stated),-7.02
17,O=C1c2ncccc2C(CCO)N1Cc1ccccc1 (configuration not stated),-3.47
18,CCCn1ccnc1CN1C[C@@H](NC(C)=O)[C@H](c2ccc(C)cc2)C1,-0.633
19,CN1CC(=O)N(c2ccsc2)CC12CCN(S(=O)(=O)c1ccccc1)C2 (configuration not stated),-109

row,Compound,cytotoxicity at 70.5 h [%]
1,CN1CCCC2(CCN(c3cc(C(F)(F)F)nc(N(C)C)n3)C2)C1=O (configuration not stated),10.3
2,O=C(c1cnccn1)N1CCc2onc(CN3CCOCC3)c2C1,23.2
3,Cc1ccc2nc(CN(Cc3ccc(C)o3)C(C)C)cc(=O)n2c1,-11.5
4,Cc1nc(CN2CCO[C@H]3[C@@H](Oc4ccccn4)CC[C@@H]32)cs1,18.6
5,Cc1ncc2c(n1)CN(CCCc1ccccc1)CC2,0.152
6,CCc1ncc2c(n1)CN(c1cc(NCCO)nc(N)n1)C2,-3.48
7,Cc1cccc(=O)n1CCC(=O)N(C)Cc1cccc2ncccc12,-15.2
8,CS(=O)(=O)N1C[C@H]2C[C@H](C(=O)N3CCOCC3)[C@@H](C1)O2,-6.47
9,CC1CN(C)c2ccccc2CN1CCn1cncn1 (configuration not stated),-0.327
10,COCCCN1CCCC(c2nccn2CC2CCC2)C1 (configuration not stated),-15
11,Cc1cc(CN(C)C(=O)NC(C)Cc2ccc(O)cc2)no1 (configuration not stated),0.825
12,O=C(NCCCn1nc2ccccn2c1=O)Nc1ccc(F)cc1F,-8.62
13,Cc1cc2n(n1)CC(CNCc1ccccc1Cn1cccn1)CN2 (configuration not stated),4.35
14,O=C(NCc1ccccc1F)NCC(O)c1cccc(F)c1 (configuration not stated),-10.3
15,CN(C)CCN1C[C@@H]2OCCN(Cc3cnn(C)c3)[C@@H]2C1,-8.58
16,Cc1nc(CN2C[C@@H]3CN(C(=O)c4cnccn4)C[C@@H]3C2=O)cs1,-10.8
17,CCCN1CCN(C(=O)CCn2nc(C(F)(F)F)c(Br)c2C)CC1,-10.4
18,CN1CCCC1(CCCc1cccnc1)C(=O)NCc1nccn1C (configuration not stated),-1.26
19,CN(Cc1n[nH]c2c1CCCC2)C(=O)c1cccc(CCC(C)(C)O)c1,-4.47

# — ChEMBL document CHEMBL3507680, “University of Dundee, Gates Library screen for HepG2 cell viability”
